Drawing on patent publication US9981925B2, “Substituted benzo[d][1,2,3]triazines as p70S6K inhibitors” (Merck Patent GmbH, priority 2012, dated 2018), this text covers IC50 for 24 molecules.

Some results are limits rather than exact numbers.

One assay has as its target p70S6K (T412E mutant) (Homo sapiens (Human), UniProt P23443, T412E). Kind of assay: p70S6K enzyme assay. It is filed as biochemical. The note with it: 24 μM ATP, 90 min at 25° C., Caliper mobility shift. The procedure: p70S6K inhibitor compounds were diluted and plated in 96 well plates. A reaction mixture including the following components were then added to the compound plate to initiate the enzyme reaction: p70S6K (3 nM, T412E mutant, Millipore) was mixed with 24 μM ATP in an assay buffer containing 100 mM Hepes (pH 7.5), 5 mM MgCl2, 1 mM DTT, 0.015% Brij and 1 μM of the substrate peptide FITC-AHA-[…]-OH (derived from the S6 ribosomal protein sequence, FITC=fluorescein isothiocyanate, AHA=6-aminohexanoic acid). The reaction was incubated for 90 min at 25° C., before the addition of 10 mM EDTA to stop the reaction. The proportion of substrate and product (phosphorylated) peptide was analyzed on a Caliper Life Sciences Lab Chip 3000, using a pressure of −1.4 psi, and upstream and downstream voltages of −3000 and −700, respectively. Product peaks were resolved before substrate peaks on the resulting chromatograms. To assess the inhibitory potential of the compounds, IC50 values were determined, as shown above.

For a further assay, the target named is His-AKT (Full Length) (Homo sapiens (Human), UniProt P31749). Kind of assay: AKT/PKB kinase assay. The assay is classed as biochemical. The note with it: 160 μM ATP, 90 min at 25° C., Caliper mobility shift. The procedure: In order to measure AKT inhibition in the Caliper Life Sciences LC3000, a TTP Mosquito liquid handling instrument was used to place 125 nl of the appropriate concentration of inhibitor in 100% DMSO (for a dose response curve calculation) into each well of a 384-well plate. To this reaction, the following components were added to a final volume of 12.5 μl: • 0.1 ng/μl His-AKT (Full Length) (Invitrogen, Part # P2999, Lot #641228C); • 160 μM ATP (Fluka, 02055); • 1 mM DTT (Sigma, D0632); • 1 mM MgCl2 (Sigma, M1028); • 1 μM substrate peptide (sequence FITC-AHA-[…]-NH2), synthesized by • Tufts Peptide Synthesis service; • 100 mM HEPES pH 7.5 (Calbiochem, 391338); and • 0.015% Brij-35 (Sigma, B4184).
Sequence of His-AKT (Full Length) (P31749 whole entry): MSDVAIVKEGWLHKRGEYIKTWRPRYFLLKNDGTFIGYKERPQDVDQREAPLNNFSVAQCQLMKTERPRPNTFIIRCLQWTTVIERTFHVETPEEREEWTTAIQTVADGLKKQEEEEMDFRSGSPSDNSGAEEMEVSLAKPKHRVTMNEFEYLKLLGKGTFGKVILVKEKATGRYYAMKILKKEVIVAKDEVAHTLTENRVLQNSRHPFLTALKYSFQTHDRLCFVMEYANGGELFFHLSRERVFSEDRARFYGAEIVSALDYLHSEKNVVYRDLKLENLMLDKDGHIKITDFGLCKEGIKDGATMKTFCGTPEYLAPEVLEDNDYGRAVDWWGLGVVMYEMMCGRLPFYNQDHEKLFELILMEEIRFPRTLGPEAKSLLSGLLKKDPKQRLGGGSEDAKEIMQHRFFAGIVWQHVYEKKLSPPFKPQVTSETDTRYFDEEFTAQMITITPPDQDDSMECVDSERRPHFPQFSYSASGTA
The reaction was incubated for 90 min at 25° C., and then stopped by the addition of 70 μl of Stop buffer (100 mM HEPES pH 7.5, 0.015% Brij-35, 10 mM EDTA (Sigma, E7889)). The plate was read on a Caliper LC 3000 in an Off-Chip mobility shift assay format, using the following parameters for a 12-sipper chip: screening pressure −2.3 psi, upstream voltage −500, and downstream voltage −3000. These conditions cause unphosphorylated substrate and phosphorylated product peptide to resolve as separate peaks allowing direct measurement of percentage of conversion of substrate to product. The percent conversion was plotted against concentration of inhibitor to produce a sigmoidal dose response curve, from which an IC50 was calculated.

Sequence of p70S6K (T412E mutant) (P23443 whole entry T412E): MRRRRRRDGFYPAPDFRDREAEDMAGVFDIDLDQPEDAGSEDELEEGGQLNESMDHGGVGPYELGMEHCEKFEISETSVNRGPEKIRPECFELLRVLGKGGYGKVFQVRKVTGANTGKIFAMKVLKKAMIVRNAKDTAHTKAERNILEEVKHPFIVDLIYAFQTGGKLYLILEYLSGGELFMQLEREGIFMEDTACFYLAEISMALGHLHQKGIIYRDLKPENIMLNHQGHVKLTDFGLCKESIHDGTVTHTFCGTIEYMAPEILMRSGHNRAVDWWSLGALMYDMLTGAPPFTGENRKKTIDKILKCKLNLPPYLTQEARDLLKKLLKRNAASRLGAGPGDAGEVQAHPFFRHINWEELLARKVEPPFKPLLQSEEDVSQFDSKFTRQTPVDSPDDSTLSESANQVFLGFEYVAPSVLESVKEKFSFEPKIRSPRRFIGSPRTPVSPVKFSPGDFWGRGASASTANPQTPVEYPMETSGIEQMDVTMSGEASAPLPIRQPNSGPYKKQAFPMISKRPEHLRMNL

`CNC[C@@H](Nc1ncnc2c(C(N)=O)ccnc12)c1ccc(F)c(C)c1` [Compound 67, 4-[(S)-1-(4-Fluoro-3-methyl-phenyl)-2-methylamino-ethylamino]-pyrido[3,2-d]pyrimidine-8-carboxylic Acid Amide]: the IC50 on p70S6K (T412E mutant) and at His-AKT (Full Length) was under 25 nM each time.

For the molecule `CCNC[C@@H](Nc1ncnc2c(C(N)=O)ccnc12)c1cc(F)cc(C(F)(F)F)c1` [Compound 34, 4-[(S)-2-Ethylamino-1-(3-fluoro-5-trifluoromethyl-phenyl)-ethylamino]-pyrido[3,2-d]pyrimidine-8-carboxylic Acid Amide], the IC50 at p70S6K (T412E mutant) lay within 25 to 100 nM; on His-AKT (Full Length), 101 to 500 nM.

For `COc1cc([C@@H](CN2CCC2)Nc2nnnc3c(C(N)=O)cccc23)ccc1Cl` [Compound 10, (S)-4-((2-(azetidin-1-yl)-1-(4-chloro-3-methoxyphenyl)ethyl)amino)-benzo[d][1,2,3]triazine-8-carboxamide], the IC50 on p70S6K (T412E mutant) is under 25 nM; on His-AKT (Full Length) it was 101 to 500 nM.

`NC(=O)c1cccc2c(NCc3cccnc3)nnnc12` [Compound 3, 4-((pyridin-3-ylmethyl)amino)benzo[d][1,2,3]triazine-8-carboxamide]: the half-maximal inhibitory concentration (IC50) at p70S6K (T412E mutant) and on His-AKT (Full Length) was over 1000 nM throughout.

Turning to `CNC[C@@H](Nc1ncnc2c(C(N)=O)ccnc12)c1ccc(Cl)c(C)c1` [Compound 44, 4-[(S)-1-(4-Chloro-3-methyl-phenyl)-2-methylamino-ethylamino]-pyrido[3,2-d]pyrimidine-8-carboxylic Acid Amide], the half-inhibitory concentration (IC50) at p70S6K (T412E mutant) and on His-AKT (Full Length) was under 25 nM throughout.

Take `CNC[C@@H](Nc1ncnc2c(C(N)=O)ccnc12)c1cc(F)c(F)cc1F` [Compound 60, 4-[(S)-2-Methylamino-1-(2,4,5-trifluoro-phenyl)-ethylamino]-pyrido[3,2-d]pyrimidine-8-carboxylic Acid Amide]: the IC50 at p70S6K (T412E mutant) and on His-AKT (Full Length) was 25 to 100 nM in each case.

Regarding `NC(=O)c1ccnc2c(N[C@H](CN3CC(F)C3)c3ccc(Cl)c(C(F)(F)F)c3)ncnc12` [Compound 69, 4-[(S)-1-(4-Chloro-3-trifluoromethyl-phenyl)-2-(3-fluoro-azetidin-1-yl)-ethylamino]-pyrido[3,2-d]pyrimidine-8-carboxylic Acid Amide], the IC50 was under 25 nM at p70S6K (T412E mutant) and 25 to 100 nM at His-AKT (Full Length).

As to `CNC[C@@H](Nc1ncnc2c(C(N)=O)ccnc12)c1ccc(F)c(C(F)F)c1` [Compound 51, 4-[(S)-1-(3-Difluoromethyl-4-fluoro-phenyl)-2-methylamino-ethylamino]-pyrido[3,2-d]pyrimidine-8-carboxylic Acid Amide], the IC50 at p70S6K (T412E mutant) and at His-AKT (Full Length) was under 25 nM in each case.

As for `CNC[C@@H](Nc1ncnc2c(C(N)=O)ccnc12)c1ccc(C)c(C(F)(F)F)c1` [Compound 76, 4-[(S)-2-Methylamino-1-(4-methyl-3-trifluoromethyl-phenyl)-ethylamino]-pyrido[3,2-d]pyrimidine-8-carboxylic Acid Amide], the IC50 at p70S6K (T412E mutant) and on His-AKT (Full Length) was under 25 nM each time.

Regarding `NC(=O)c1cccc2c(N[C@H](CN3CCC3)c3ccc(Cl)c(Cl)c3)nnnc12` [Compound 16, (S)-4-((2-(azetidin-1-yl)-1-(3,4-dichlorophenyl)ethyl)amino)benzo[d][1,2,3]triazine-8-carboxamide], the concentration for half-maximal inhibition (IC50) on p70S6K (T412E mutant) and at His-AKT (Full Length) was under 25 nM in each case.

On to `NC(=O)c1ccnc2c(N[C@@H](CN3CCC3)c3ccc(Cl)c(C(F)(F)F)c3)ncnc12` [Compound 71, 4-[(R)-2-Azetidin-1-yl-1-(4-chloro-3-trifluoromethyl-phenyl)-ethylamino]-pyrido[3,2-d]pyrimidine-8-carboxylamide], for which the half-maximal inhibitory concentration (IC50) at p70S6K (T412E mutant) was 501 to 1000 nM; at His-AKT (Full Length) it was over 1000 nM.

For the molecule `NC(=O)c1cccc2c(N[C@H](CN3CCC3)c3ccc(Cl)c(C(F)(F)F)c3)nnnc12` [Compound 14, (S)-4-((2-(azetidin-1-yl)-1-(4-chloro-3-(trifluoromethyl)phenyl)ethyl)amino)benzo[d][1,2,3]triazine-8-carboxamide], the IC50 on p70S6K (T412E mutant) and at His-AKT (Full Length) was under 25 nM in each case.

On to `NC(=O)c1ccnc2c(N[C@H](CN3CC(O)C3)c3ccc(Cl)c(C(F)(F)F)c3)ncnc12` [Compound 70, 4-[(S)-1-(4-Chloro-3-trifluoromethyl-phenyl)-2-(3-hydroxy-azetidin-1-yl)-ethylamino]-pyrido[3,2-d]pyrimidine-8-carboxylic Acid Amide], for which the IC50 at p70S6K (T412E mutant) is under 25 nM; at His-AKT (Full Length), 25 to 100 nM.

Take `CNC[C@@H](Nc1ncnc2c(C(N)=O)ccnc12)c1ccc(C(F)(F)F)c(C(F)(F)F)c1` [Compound 43, 4-[(S)-1-(3,4-Bis-trifluoromethyl-phenyl)-2-methylamino-ethylamino]-pyrido[3,2-d]pyrimidine-8-carboxylamide]: the half-maximal inhibitory concentration (IC50) at p70S6K (T412E mutant) and on His-AKT (Full Length) was under 25 nM each time.

Regarding `NC(=O)c1cccc2c(NCc3ccc(Cl)c(Cl)c3)nnnc12` [Compound 2, 4-((3,4-dichlorobenzyl)amino)benzo[d][1,2,3]triazine-8-carboxamide], the 50% inhibitory concentration (IC50) on p70S6K (T412E mutant) is under 25 nM; on His-AKT (Full Length) it was over 1000 nM.

Take `NC(=O)c1ccnc2c(NC3CNCCC3c3ccc(F)c(Cl)c3)ncnc12` (stereo not drawn) [Compound 23, 4-[4-(3-Chloro-4-fluoro-phenyl)-piperidin-3-ylamino]-pyrido[3,2-d]pyrimidine-8-carboxamide]: the IC50 lay within 25 to 100 nM at p70S6K (T412E mutant) and 101 to 500 nM on His-AKT (Full Length).

Take `CNC[C@@H](Nc1ncnc2c(C(N)=O)ccnc12)c1ccc(OC(F)(F)F)c(Cl)c1` [Compound 74, 4-[(S)-1-(3-Chloro-4-trifluoromethoxy-phenyl)-2-methylamino-ethylamino]-pyrido[3,2-d]pyrimidine-8-carboxylamide]: the half-maximal inhibitory concentration (IC50) on p70S6K (T412E mutant) is under 25 nM; on His-AKT (Full Length), 25 to 100 nM.

On to `NC(=O)c1cccc2c(NCc3cccc(F)c3)nnnc12` [Compound 9, 4-((3-fluorobenzyl)amino)benzo[d][1,2,3]triazine-8-carboxamide], for which the half-maximal inhibitory concentration (IC50) on p70S6K (T412E mutant) is 501 to 1000 nM; at His-AKT (Full Length), over 1000 nM.

Consider `NC(=O)c1cccc2c(NCc3ccc(C(F)(F)F)cn3)nnnc12` [Compound 7, 4-(((5-(trifluoromethyl)pyridin-2-yl)methyl)amino)benzo[d][1,2,3]triazine-8-carboxamide], for which the IC50 at p70S6K (T412E mutant) and at His-AKT (Full Length) was over 1000 nM throughout.

Consider `CNC[C@@H](Nc1ncnc2c(C(N)=O)nccc12)c1ccc(Cl)c(C(F)(F)F)c1` [Compound 42, 4-[(S)-1-(4-Chloro-3-trifluoromethyl-phenyl)-2-methylamino-ethylamino]-pyrido[3,4-d]pyrimidine-8-carboxylic Acid Amide], for which the IC50 at p70S6K (T412E mutant) and at His-AKT (Full Length) was under 25 nM throughout.

With `NC(=O)c1cccc2c(NC3CNCCC3c3cccc(C(F)(F)F)c3)nnnc12` (stereo not drawn) [Compound 21, 4-((4-(3-(trifluoromethyl)phenyl)piperidin-3-yl)amino)benzo[d][1,2,3]triazine-8-carboxamide], the IC50 on p70S6K (T412E mutant) and at His-AKT (Full Length) was under 25 nM each time.

As for `CN(C)C[C@@H](Nc1nnnc2c(C(N)=O)cccc12)c1ccc(Cl)c(C(F)(F)F)c1` [Compound 13, (S)-4-((1-(4-chloro-3-(trifluoromethyl)phenyl)-2-(dimethylamino)ethyl)amino)benzo-[d][1,2,3]triazine-8-carboxamide], the IC50 on p70S6K (T412E mutant) and at His-AKT (Full Length) was under 25 nM throughout.

Consider `CN(C)C[C@@H](Nc1nnnc2c(C(N)=O)cccc12)c1ccc(Cl)c(C#N)c1` [Compound 17, (S)-4-((1-(4-chloro-3-cyanophenyl)-2-(dimethylamino)ethyl)amino)-benzo[d][1,2,3]triazine-8-carboxamide], for which the results for the IC50 on p70S6K (T412E mutant) and at His-AKT (Full Length) were 25 to 100 nM and 101 to 500 nM, respectively.

Turning to `CCNC[C@@H](Nc1ncnc2c(C(N)=O)ccnc12)c1cc(F)c(OC)cc1F` [Compound 31, 4-[(S)-1-(2,5-Difluoro-4-methoxy-phenyl)-2-ethylamino-ethylamino]-pyrido[3,2-d]pyrimidine-8-carboxylic Acid Amide], the half-inhibitory concentration (IC50) at p70S6K (T412E mutant) was 25 to 100 nM; on His-AKT (Full Length), over 1000 nM.
